From PMC8456977, “Inclusion Complexes of Gold(I)‐Dithiocarbamates with β‐Cyclodextrin: A Journey from Drug Repurposing towards Drug Discovery” (Chemistry (Weinheim an Der Bergstrasse, Germany), 2021)

What was measured:
COLO-357 = assay: Quantification of drug sensitivity (CellTiter-Blue), COLO-357; format: cell-based; conditions: COLO-357 (pancreatic cancer), 72 h, 30-fold excess 2-hydroxypropyl-β-cyclodextrin, combination DSF/ATM 1:1
Experimental: (§1) Quantification of drug sensitivity (Figure 2A): Cell lines (including HT‐29) were obtained from ATCC or as gifts from other research groups at the DKFZ and checked for mycoplasma contamination and authenticity before use. Cell lines were seeded in 96‐well plates in RPMI‐1640 medium, supplemented with 10 % BCS (bovine calf serum) and 1 % Pen/Strep at a density of 2×10^4 cells/well. Disulfiram (DSF) and sodium aurothiomalate (ATM) were added at a fixed ratio of 1 : 1, formulated in a 30‐fold molar excess of 2HP‐β‐CD (2‐hydroxypropyl‐β‐cyclodextrin). ATM and DSF monotherapy was also done in the presence of 2HP‐β‐CD, to control for possible combination effects by 2HP‐β‐CD. All concentrations were applied in triplicate. After incubation at 37 °C for 72 h, CellTiter‐Blue (Promega) was added (10 μL/well). After incubation at 37 °C for 4 h, fluorescence (excitation filter: 550 nm, emission filter 590 nm) was determined in an Optima FLUOstar microplate reader (BMG Labtech). Mean values were calculated for each treatment and EC50 values were calculated from […] dose response curves.

SK-OV-3 = assay: Quantification of drug sensitivity (CellTiter-Blue), SK-OV-3; format: cell-based; conditions: SK-OV-3 (ovarian carcinoma), 72 h, 30-fold excess 2-hydroxypropyl-β-cyclodextrin, combination DSF/ATM 1:1
Experimental: as §1

MeWo = assay: Quantification of drug sensitivity (CellTiter-Blue), MeWo; format: cell-based; conditions: MeWo (melanoma), 72 h, 30-fold excess 2-hydroxypropyl-β-cyclodextrin, combination DSF/ATM 1:1
Experimental: as §1

HeLa = assay: Quantification of drug sensitivity (CellTiter-Blue), HeLa; format: cell-based; conditions: HeLa (cervix carcinoma), 72 h, 30-fold excess 2-hydroxypropyl-β-cyclodextrin, combination DSF/ATM 1:1
Experimental: as §1

HCT 116 = assay: Quantification of drug sensitivity (CellTiter-Blue), HCT 116; format: cell-based; conditions: HCT 116 (colon carcinoma), 72 h, 30-fold excess 2-hydroxypropyl-β-cyclodextrin, combination DSF/ATM 1:1
Experimental: as §1

Calu-6 cells = assay: Quantification of drug sensitivity (CellTiter-Blue), Calu-6; format: cell-based; conditions: Calu-6 (NSCLC), 72 h, 30-fold excess 2-hydroxypropyl-β-cyclodextrin, combination DSF/ATM 1:1
Experimental: as §1
Dose-Response Curves of ATM/DSF and 5
Figure S2: Dose-response curves of the s toichiometric mixture of ATM and DSF (blue) as well
as isolated 5 (red) for the treatment of Calu-6 cells (both in the presence of 30-fold excess of 2-
(also on this page, place not known: Normalized Proliferation (CellTiter-Blue) stoichiometric) […]

HL-60 = assay: Quantification of drug sensitivity (CellTiter-Blue), HL-60; format: cell-based; conditions: HL-60 (non-T cell leukemia), 72 h, 30-fold excess 2-hydroxypropyl-β-cyclodextrin, combination DSF/ATM 1:1
Experimental: as §1

[1] = system: mitochondrial ROS in H838 cells (roGFP2-Orp1); assay: ROS level in mitochondria, roGFP2-Orp1 sensor; format: cell-based; conditions: 12.5 μM, DMSO stock or up to 32-fold excess of SBE-β-CD
Experimental: (§2) Measurement of ROS levels in cytoplasm and mitochondria (Figure 8): The effects of 33 and auranofin on roGFP2‐Orp1 oxidation were quantified in H838 cells stably expressing roGFP2‐Orp1 targeted either to cytoplasm or mitochondria as described in Ezerina et al.[28] Specifically, a 5 mM stock solution of 33 was prepared by directly dissolving solid 33 into 10 mM, 40 mM, 80 mM, and 160 mM solutions of SBE‐β‐CD (Biomol) in PBS (Gibco). A 100 mM auranofin (Sigma‐Aldrich) solution was prepared in DMSO (Sigma‐Aldrich). This was further diluted to 0.5 mM stock solutions of auranofin in 0 mM, 4 mM, 8 mM, and 16 mM SBE‐β‐CD in PBS. […] Non‐transduced H838 cells were seeded on the same plate to establish background fluorescence. The fluorescence intensity from these wells was subtracted from all the measurement results. To establish the signal baseline, the entire plate was measured every 3 min for 8 cycles in a CLARIOstar fluorescence plate reader (BMG Labtech), with excitation wavelengths of 400 nm and 485 nm, while measuring emission at 520 nm. […] The readout of the roGFP2 measurement is normalized to the positive (1.0) and the negative (0) controls using the following equation: OxDroGFP2=(I400sampleI485red)-(I400redI485sample)/(I400sample)I485red-I485ox+(I485sampleI400ox-I400red)
(§3) where I400 and I485 are the signal intensities measured at 520 nm after excitation at 400 nm and 485 nm, respectively. […]

[2] = system: cytoplasmic ROS in H838 cells (roGFP2-Orp1); assay: ROS level in cytoplasm, roGFP2-Orp1 sensor; format: cell-based; conditions: 12.5 μM, DMSO stock or up to 32-fold excess of SBE-β-CD
Experimental: as §2, §3

[3] = Solubility / solubilization in solvents and cyclodextrin (observations); format: physicochemical

Compound: O=C([O-])CC([S-])C(=O)[O-].[Au+].[Na+].[Na+] (stereo not shown) [ATM, sodium aurothiomalate]
- EC50 (COLO-357): 96 µM
- EC50 (SK-OV-3): 260 µM
- EC50 (MeWo): 130 µM
- EC50 (HeLa): 440 µM
- EC50 (HCT 116): 140 µM
- EC50 (Calu-6 cells): 360 µM
- EC50 (HL-60): 330 µM

Compound: CCN(CC)C(=S)SSC(=S)N(CC)CC [DSF, disulfiram]
- EC50 (COLO-357; Homo sapiens, COLO357): 82 µM
- EC50 (SK-OV-3; Homo sapiens): 340 µM
- EC50 (MeWo; Homo sapiens): 290 µM
- EC50 (HeLa; Homo sapiens): 320 µM
- EC50 (HCT 116; Homo sapiens): 3.4 µM
- EC50 (Calu-6 cells; Homo sapiens): 160 µM
- EC50 (HL-60; Homo sapiens): 120 µM

Compound: CC(=O)OC[C@H]1O[C@@H]([S-])[C@H](OC(C)=O)[C@@H](OC(C)=O)[C@@H]1OC(C)=O.CCP(CC)CC.[Au+] [auranofin]
- mitochondrial ROS (roGFP2-Orp1 oxidation) [1]: high levels of ROS
- cytoplasmic ROS (roGFP2-Orp1 oxidation) [2]: high levels of ROS

Compound: [Au(N,N‐diethyl)dtc]2 [compound 5]
- EC50 (Calu-6 cells): 1.6 µM
- cyclodextrin required for solubilization [3]: > 30 molar equivalents
- solubility in common/organic solvents ([3]; organic solvents including DMSO, ambient temperature): poor solubility
